Source: US20070249620A1, “Urea Derivative” (priority 2004, published 2007)

Tests used:
mouse DGAT1 = target: T1, mouse DGAT1 (Mus musculus, UniProt Q9Z2A7); test: DGAT1 inhibitory effect test (microsome fraction, [14C]-oleoyl-CoA, triglyceride radioactivity by TLC); type: biochemical; conditions: 0.5 h; concentration of the test compound 0.1 μg/ml; mouse DGAT1 microsomes, 23° C., 30 minutes; read-out: Inhibitory ratio
T1 construct: made in house; host or cells: insect cells (High Five, Sf9, Sf21, etc.), baculovirus expression system (Invitrogen)
T1 sequence (Q9Z2A7 1-498): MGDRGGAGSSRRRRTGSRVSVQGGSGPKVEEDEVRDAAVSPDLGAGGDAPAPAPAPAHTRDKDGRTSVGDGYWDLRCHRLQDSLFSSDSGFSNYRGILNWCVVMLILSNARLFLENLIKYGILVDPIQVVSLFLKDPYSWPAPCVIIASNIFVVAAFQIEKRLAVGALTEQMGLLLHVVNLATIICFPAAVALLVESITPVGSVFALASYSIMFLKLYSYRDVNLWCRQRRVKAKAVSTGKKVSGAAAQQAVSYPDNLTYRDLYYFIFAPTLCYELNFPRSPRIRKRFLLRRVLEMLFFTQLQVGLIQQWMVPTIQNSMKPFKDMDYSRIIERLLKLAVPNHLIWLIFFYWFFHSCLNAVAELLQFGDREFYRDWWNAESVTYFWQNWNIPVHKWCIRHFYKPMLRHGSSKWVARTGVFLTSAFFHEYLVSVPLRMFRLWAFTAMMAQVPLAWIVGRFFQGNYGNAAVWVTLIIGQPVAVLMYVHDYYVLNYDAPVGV
How it was run: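 Baculovirus-expressed mouse DGAT1 insect-cell microsomes (10 μg) were incubated 30 min at 23 °C, pH 8.0, with 0.5 mM 1,2-dioleoyl-sn-glycerol, 30 μM [14C]-oleoyl-CoA and 0.5% Triton X-100. [14C]-triglyceride was quantified after heptane extraction and TLC. Percent inhibition was taken against vehicle control, with 0-min background subtracted.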

| inhibition at 0.1 µg/mL (mouse DGAT1) [%] | melting point | Compound |
| --- | --- | --- |
| ≥ 50 | 134 to 136 °C | COc1ccc(C)cc1NC(=O)Nc1ccc(N2CCN(C(=O)Nc3ccc(OCC(O)CO)cc3Cl)CC2)cc1 (centres unmarked) [Example 277, 4-{4-[3-(2-methoxy-5-methyl-phenyl)-ureido]-phenyl}-piperazine-1-carboxylic acid [2-chloro-4-(2,3-dihydroxy-propoxy)-phenyl]-amide] |
| ≥ 50 | 196 to 197 °C | COc1ccc(C)cc1NC(=O)Nc1ccc(N2CCN(C(=O)Nc3ccc(OCCO)cc3Cl)CC2)nc1 [Example 268, 4-{5-[3-(2-methoxy-5-methyl-phenyl)-ureido]-pyridin-2-yl}-piperazine-1-carboxylic acid [2-chloro-4-(2-hydroxy-ethoxy)-phenyl]-amide] |
| ≥ 50 | 187 to 190 °C | COc1ccc(C)cc1NC(=O)Nc1ccc(N2CCN(C(=O)Nc3ccc(OCC(O)CO)cc3C(F)(F)F)CC2)cc1 (centres unmarked) [Example 275, 4-{4-[3-(2-methoxy-5-methyl-phenyl)-ureido]-phenyl}-piperazine-1-carboxylic acid [4-(2,3-dihydroxy-propoxy)-2-trifluoromethyl-phenyl]-amide] |
| ≥ 50 | 172 to 174 °C | COc1ccc(C)cc1NC(=O)Nc1ccc(N2CCN(C(=O)Nc3ccc(F)cc3C(F)(F)F)CC2)cc1 [Example 87, 4-{4-[3-(2-methoxy-5-methyl-phenyl)-ureido]-phenyl}-piperazine-1-carboxylic acid (4-fluoro-2-trifluoromethyl-phenyl)-amide] |
| ≥ 50 | 135 to 137 °C | COc1ccc(C)cc1NC(=O)Nc1ccc(C2=CCN(C(=O)Nc3ccc(OCC(O)CO)cc3C(F)(F)F)CC2)cc1 (centres unmarked) [Example 282, 4-{4-[3-(2-methoxy-5-methyl-phenyl)-ureido]-phenyl}-3,6-dihydro-2H-pyridine-1-carboxylic acid [4-(2,3-dihydroxy-propoxy)-2-trifluoromethyl-phenyl]-amide] |
| ≥ 50 | 244 to 246 °C | COc1ccc(C)cc1NC(=O)Nc1ccc(N2CCN(C(=O)Nc3ccc(N)cc3C(F)(F)F)CC2)cc1 [Example 166, 4-{4-[3-(2-methoxy-5-methyl-phenyl)-ureido]-phenyl}-piperazine-1-carboxylic acid (4-amino-2-trifluoromethyl-phenyl)-amide] |
| ≥ 50 | 195 °C | COc1ccc(F)cc1NC(=O)Nc1ccc(N2CCN(C(=O)Nc3ccc(OCC(O)CO)cc3C(F)(F)F)CC2)nc1 (centres unmarked) [Example 279, 4-{5-[3-(5-fluoro-2-methoxy-phenyl)-ureido]-pyridin-2-yl}-piperazine-1-carboxylic acid [4-(2,3-dihydroxy-propoxy)-2-trifluoromethyl-phenyl]-amide] |

More lines, now with the values behind:

| Compound | inhibition at 0.1 µg/mL (mouse DGAT1) [%] | melting point |
| --- | --- | --- |
| CCOc1ccc(C)cc1NC(=O)Nc1ccc(N2CCN(C(=O)Nc3c(C)cccc3OC)CC2)cc1 [Example 184, 4-{4-[3-(2-ethoxy-5-methyl-phenyl)-ureido]-phenyl}-piperazine-1-carboxylic acid (2-methoxy-6-methyl-phenyl)-amide] | ≥ 50 | 142 to 144 °C |
| CCC(C)c1ccccc1NC(=O)Nc1ccc(N2CCN(C(=O)Nc3c(C)cccc3Cl)CC2)cc1 (centres unmarked) [Example 157, 4-{4-[3-(2-sec-butyl-phenyl)-ureido]-phenyl}-piperazine-1-carboxylic acid (2-chloro-6-methyl-phenyl)-amide] | ≥ 50 | 232 to 234 °C |
| COc1ccc(C)cc1NC(=O)Nc1ccc(N2CCN(C(=O)Nc3c(C)cccc3OC)CC2)cc1 [Example 170, 4-{4-[3-(2-methoxy-5-methyl-phenyl)-ureido]-phenyl}-piperazine-1-carboxylic acid (2-methoxy-6-methyl-phenyl)-amide] | ≥ 50 | 200 to 203 °C |
| O=C(Nc1ccc(N2CCN(C(=O)C(O)c3ccccc3Cl)CC2)nc1)Nc1ccccc1F (centres unmarked) [Example 377, 1-(6-{4-[2-(2-chloro-phenyl)-2-hydroxy-acetyl]-piperazin-1-yl}-pyridin-3-yl)-3-(2-fluoro-phenyl)-urea] | ≥ 50 | 127 to 128 °C |
| Cc1ccc(Cl)c(NC(=O)Nc2ccc(N3CCN(C(=O)Nc4c(C)cccc4Cl)CC3)cc2)c1 [Example 165, 4-{4-[3-(2-chloro-5-methyl-phenyl)-ureido]-phenyl}-piperazine-1-carboxylic acid (2-chloro-6-methyl-phenyl)-amide] | ≥ 50 | > 260 °C (dec.) |
| O=C(Nc1ccc(N2CCN(C(=O)Nc3ccc(OCC(O)CO)cc3Cl)CC2)cc1)Nc1ccccc1F (centres unmarked) [Example 278, 4-{4-[3-(2-fluoro-phenyl)-ureido]-phenyl}-piperazine-1-carboxylic acid [2-chloro-4-(2,3-dihydroxy-propoxy)-phenyl]-amide] | ≥ 50 | 189 to 190 °C |
| COc1ccc(C)cc1NC(=O)Nc1ccc(N2CCN(C(=O)Nc3c(C)cccc3OC)CC2)nc1 [Example 186, 4-{5-[3-(2-methoxy-5-methyl-phenyl)-ureido]-pyridin-2-yl}-piperazine-1-carboxylic acid (2-methoxy-6-methyl-phenyl)-amide] | ≥ 50 | 198 to 200 °C |
| O=C(Nc1ccc(C2=CCN(C(=O)Nc3ccc(OCCO)cc3C(F)(F)F)CC2)cc1)Nc1ccccc1F [Example 229, 4-{4-[3-(2-fluoro-phenyl)-ureido]-phenyl}-3,6-dihydro-2H-pyridine-1-carboxylic acid [4-(2-hydroxy-ethoxy)-2-trifluoromethyl-phenyl]-amide] | ≥ 50 | 110 to 112 °C |
| COc1ccc(C)cc1NC(=O)Nc1ccc(N2CCN(C(=O)Nc3ccccc3Br)CC2)cc1 [Example 57, 4-{4-[3-(2-methoxy-5-methyl-phenyl)-ureido]-phenyl}-piperazine-1-carboxylic acid (2-bromo-phenyl)-amide] | ≥ 50 | 212 to 214 °C |
| COc1ccc(C)cc1NC(=O)Nc1ccc(N2CCN(C(=O)C(O)c3ccccc3Cl)CC2)nc1 (centres unmarked) [Example 380, 1-(6-{4-[2-(2-chloro-phenyl)-2-hydroxy-acetyl]-piperazin-1-yl}-pyridin-3-yl)-3-(2-methoxy-5-methyl-phenyl)-urea] | ≥ 50 | 118 to 120 °C |
| O=C(Nc1ccc2c(c1)CCN(C(=O)Nc1ccc(OCCO)cc1Cl)C2)Nc1ccccc1F [Example 267, 6-[3-(2-fluoro-phenyl)-ureido]-3,4-dihydro-1H-isoquinoline-2-carboxylic acid [2-chloro-4-(2-hydroxy-ethoxy)-phenyl]-amide] | ≥ 50 | 183 to 186 °C |
| COc1cc(NC(=O)Nc2ccc3c(c2)CCN(C(=O)Nc2ccc(OCC(O)CO)cc2Cl)C3)cc(OC)c1 (centres unmarked) [Example 285, 6-[3-(3,5-dimethoxy-phenyl)-ureido]-3,4-dihydro-1H-isoquinoline-2-carboxylic acid [2-chloro-4-(2,3-dihydroxy-propoxy)-phenyl]-amide] | ≥ 50 | 108 to 110 °C |
